Reference: BindingDB's records for doi:10.1021/cb300623a (University of Washington, 2013)

Key:
Test in all cases: Fluorescence Assay
Settings in all cases: pH 7.5; 25 °C
Ephrin type-A receptor 3 = molecular target: T1, Ephrin type-A receptor 3 (Homo sapiens, UniProt P29320)
T1 sequence (P29320 whole entry): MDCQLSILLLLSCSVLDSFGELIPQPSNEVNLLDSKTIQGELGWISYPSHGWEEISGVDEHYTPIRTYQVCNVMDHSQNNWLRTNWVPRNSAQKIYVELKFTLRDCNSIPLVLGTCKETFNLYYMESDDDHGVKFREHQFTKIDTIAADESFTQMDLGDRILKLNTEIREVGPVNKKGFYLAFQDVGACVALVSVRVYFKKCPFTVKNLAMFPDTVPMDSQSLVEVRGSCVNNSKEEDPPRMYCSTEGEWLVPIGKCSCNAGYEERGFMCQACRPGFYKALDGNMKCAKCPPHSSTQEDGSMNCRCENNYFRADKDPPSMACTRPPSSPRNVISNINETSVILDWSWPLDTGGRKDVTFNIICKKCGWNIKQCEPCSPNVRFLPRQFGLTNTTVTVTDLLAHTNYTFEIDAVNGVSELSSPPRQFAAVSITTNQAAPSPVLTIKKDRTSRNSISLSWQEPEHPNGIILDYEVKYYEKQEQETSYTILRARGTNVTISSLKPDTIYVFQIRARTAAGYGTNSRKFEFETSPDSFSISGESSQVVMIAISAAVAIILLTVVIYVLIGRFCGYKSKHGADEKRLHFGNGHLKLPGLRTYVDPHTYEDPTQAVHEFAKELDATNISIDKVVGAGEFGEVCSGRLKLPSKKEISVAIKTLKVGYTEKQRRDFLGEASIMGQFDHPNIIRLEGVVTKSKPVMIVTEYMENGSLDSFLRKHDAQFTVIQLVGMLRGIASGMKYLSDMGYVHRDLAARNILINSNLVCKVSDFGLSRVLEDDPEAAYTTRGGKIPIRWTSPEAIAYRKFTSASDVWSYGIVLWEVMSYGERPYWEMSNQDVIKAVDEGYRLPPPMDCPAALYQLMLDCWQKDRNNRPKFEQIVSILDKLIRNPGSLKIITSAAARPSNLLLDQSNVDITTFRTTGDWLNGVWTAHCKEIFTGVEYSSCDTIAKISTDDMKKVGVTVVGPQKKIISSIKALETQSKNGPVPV
Source text: (§1) Fluorescence assay used for determination of catch and release efficiency.

[1] = molecular target: T2, Interleukin-1 receptor-associated kinase 4 (Homo sapiens, UniProt Q9NWZ3)
T2 sequence (Q9NWZ3 whole entry): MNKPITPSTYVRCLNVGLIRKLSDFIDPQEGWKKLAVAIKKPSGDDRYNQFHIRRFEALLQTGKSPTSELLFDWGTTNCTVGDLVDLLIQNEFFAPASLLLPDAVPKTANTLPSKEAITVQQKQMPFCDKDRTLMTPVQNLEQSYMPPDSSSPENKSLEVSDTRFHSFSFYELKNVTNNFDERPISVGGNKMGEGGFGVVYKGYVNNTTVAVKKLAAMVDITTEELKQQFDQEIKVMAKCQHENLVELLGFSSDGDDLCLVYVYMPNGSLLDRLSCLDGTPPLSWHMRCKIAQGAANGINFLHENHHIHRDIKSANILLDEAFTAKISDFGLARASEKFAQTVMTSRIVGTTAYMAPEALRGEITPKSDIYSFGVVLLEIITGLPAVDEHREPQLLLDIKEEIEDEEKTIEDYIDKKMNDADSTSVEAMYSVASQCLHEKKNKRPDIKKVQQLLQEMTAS
Source text: as §1

[2] = molecular target: T3, Mitogen-activated protein kinase kinase kinase 5 (Homo sapiens, UniProt Q99683)
T3 sequence (Q99683 whole entry): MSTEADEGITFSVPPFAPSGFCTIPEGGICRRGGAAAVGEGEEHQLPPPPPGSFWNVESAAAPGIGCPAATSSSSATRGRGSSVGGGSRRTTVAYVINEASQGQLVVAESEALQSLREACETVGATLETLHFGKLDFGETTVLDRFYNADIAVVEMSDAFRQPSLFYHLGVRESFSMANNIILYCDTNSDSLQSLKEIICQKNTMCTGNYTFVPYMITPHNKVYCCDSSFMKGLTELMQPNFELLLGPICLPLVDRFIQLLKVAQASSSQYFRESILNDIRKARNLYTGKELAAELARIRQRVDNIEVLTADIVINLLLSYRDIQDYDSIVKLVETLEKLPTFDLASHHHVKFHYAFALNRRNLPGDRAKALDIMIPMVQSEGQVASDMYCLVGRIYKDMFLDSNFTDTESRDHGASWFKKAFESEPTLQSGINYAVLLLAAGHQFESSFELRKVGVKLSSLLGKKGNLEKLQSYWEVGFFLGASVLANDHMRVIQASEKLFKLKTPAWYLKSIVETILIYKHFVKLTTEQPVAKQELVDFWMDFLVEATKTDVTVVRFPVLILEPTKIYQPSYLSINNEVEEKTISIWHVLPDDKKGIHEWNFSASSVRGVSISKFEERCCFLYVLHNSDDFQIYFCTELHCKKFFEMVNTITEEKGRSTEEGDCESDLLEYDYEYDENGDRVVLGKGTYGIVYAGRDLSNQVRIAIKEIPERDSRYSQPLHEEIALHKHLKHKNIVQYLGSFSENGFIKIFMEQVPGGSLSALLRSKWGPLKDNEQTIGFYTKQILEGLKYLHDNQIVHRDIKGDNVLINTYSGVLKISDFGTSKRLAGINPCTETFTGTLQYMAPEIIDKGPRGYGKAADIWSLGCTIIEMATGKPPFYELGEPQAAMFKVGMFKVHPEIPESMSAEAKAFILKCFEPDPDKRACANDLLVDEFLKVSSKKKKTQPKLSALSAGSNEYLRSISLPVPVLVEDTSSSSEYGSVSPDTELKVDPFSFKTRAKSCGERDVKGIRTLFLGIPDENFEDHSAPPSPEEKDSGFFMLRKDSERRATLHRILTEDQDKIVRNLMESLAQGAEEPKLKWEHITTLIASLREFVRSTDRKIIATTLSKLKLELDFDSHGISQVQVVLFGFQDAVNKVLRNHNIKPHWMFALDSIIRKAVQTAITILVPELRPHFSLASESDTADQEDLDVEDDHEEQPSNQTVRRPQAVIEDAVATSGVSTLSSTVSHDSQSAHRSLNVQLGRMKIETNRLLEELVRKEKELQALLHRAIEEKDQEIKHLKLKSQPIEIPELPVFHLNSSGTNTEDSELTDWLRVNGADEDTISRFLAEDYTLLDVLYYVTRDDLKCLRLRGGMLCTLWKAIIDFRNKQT
Source text: as §1

[3] = molecular target: Proto-oncogene tyrosine-protein kinase Src (Homo sapiens, UniProt P12931)
Chain of Proto-oncogene tyrosine-protein kinase Src (P12931 2-536 limits assumed): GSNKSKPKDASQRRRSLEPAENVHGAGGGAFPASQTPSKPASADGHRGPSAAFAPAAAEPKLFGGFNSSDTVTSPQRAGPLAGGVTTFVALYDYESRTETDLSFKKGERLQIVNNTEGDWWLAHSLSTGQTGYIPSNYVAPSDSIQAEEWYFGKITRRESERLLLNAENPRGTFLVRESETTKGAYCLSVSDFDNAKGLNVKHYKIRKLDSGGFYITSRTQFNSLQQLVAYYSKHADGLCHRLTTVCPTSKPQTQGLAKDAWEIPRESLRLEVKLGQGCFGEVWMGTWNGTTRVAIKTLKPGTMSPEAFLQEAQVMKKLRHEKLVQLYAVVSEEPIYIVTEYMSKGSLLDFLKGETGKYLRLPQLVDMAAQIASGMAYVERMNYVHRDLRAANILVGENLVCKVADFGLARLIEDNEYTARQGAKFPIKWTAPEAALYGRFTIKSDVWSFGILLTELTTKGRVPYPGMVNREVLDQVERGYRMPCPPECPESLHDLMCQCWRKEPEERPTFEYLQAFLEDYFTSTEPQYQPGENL
Source text: as §1

[4] = molecular target: Serine/threonine-protein kinase 10 (Homo sapiens, UniProt O94804)
Chain of Serine/threonine-protein kinase 10 (O94804 whole entry): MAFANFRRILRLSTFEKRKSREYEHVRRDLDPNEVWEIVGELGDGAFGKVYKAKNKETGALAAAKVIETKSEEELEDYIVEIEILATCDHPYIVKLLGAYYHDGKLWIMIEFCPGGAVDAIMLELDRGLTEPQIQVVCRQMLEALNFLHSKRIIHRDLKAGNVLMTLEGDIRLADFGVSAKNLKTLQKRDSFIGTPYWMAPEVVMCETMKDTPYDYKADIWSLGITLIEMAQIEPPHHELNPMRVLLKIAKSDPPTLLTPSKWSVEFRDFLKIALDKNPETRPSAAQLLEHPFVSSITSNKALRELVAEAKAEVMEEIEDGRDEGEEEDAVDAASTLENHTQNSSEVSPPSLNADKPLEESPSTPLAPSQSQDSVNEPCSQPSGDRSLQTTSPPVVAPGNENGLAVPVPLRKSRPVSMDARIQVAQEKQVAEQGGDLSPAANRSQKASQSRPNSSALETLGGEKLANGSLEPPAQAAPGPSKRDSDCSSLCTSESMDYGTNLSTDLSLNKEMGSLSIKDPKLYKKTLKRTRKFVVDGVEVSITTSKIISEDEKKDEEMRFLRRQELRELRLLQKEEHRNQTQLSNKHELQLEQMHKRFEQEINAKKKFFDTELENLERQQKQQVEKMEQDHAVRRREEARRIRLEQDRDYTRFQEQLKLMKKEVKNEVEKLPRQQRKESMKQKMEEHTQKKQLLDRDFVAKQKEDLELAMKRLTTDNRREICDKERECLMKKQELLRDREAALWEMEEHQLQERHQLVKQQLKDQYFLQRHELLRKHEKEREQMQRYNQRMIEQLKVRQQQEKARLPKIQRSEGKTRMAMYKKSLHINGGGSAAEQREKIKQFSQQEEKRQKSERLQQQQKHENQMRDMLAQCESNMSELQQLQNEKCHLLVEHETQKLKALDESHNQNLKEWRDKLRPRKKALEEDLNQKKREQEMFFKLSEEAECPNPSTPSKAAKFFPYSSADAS
Source text: as §1

[5] = molecular target: Serine/threonine-protein kinase PAK 4 (Homo sapiens, UniProt O96013)
Chain of Serine/threonine-protein kinase PAK 4 (O96013 whole entry): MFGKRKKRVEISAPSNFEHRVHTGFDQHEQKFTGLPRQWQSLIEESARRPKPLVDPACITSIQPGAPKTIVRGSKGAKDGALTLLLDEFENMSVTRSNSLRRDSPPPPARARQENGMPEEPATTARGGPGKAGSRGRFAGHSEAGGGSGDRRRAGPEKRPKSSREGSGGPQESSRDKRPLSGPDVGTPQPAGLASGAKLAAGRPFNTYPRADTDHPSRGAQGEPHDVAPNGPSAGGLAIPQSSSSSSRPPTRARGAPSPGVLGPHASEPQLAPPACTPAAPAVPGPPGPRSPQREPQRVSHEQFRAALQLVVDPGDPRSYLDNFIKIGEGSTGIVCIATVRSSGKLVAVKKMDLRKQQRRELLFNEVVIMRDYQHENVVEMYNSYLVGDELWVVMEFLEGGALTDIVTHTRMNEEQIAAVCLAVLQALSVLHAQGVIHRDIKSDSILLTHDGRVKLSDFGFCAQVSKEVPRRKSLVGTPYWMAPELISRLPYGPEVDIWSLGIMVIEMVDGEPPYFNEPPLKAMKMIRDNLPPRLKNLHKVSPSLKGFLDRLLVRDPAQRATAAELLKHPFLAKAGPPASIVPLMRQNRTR
Source text: as §1

[6] = molecular target: Serine/threonine-protein kinase PAK 5 (Homo sapiens, UniProt Q9P286)
Chain of Serine/threonine-protein kinase PAK 5 (Q9P286 whole entry): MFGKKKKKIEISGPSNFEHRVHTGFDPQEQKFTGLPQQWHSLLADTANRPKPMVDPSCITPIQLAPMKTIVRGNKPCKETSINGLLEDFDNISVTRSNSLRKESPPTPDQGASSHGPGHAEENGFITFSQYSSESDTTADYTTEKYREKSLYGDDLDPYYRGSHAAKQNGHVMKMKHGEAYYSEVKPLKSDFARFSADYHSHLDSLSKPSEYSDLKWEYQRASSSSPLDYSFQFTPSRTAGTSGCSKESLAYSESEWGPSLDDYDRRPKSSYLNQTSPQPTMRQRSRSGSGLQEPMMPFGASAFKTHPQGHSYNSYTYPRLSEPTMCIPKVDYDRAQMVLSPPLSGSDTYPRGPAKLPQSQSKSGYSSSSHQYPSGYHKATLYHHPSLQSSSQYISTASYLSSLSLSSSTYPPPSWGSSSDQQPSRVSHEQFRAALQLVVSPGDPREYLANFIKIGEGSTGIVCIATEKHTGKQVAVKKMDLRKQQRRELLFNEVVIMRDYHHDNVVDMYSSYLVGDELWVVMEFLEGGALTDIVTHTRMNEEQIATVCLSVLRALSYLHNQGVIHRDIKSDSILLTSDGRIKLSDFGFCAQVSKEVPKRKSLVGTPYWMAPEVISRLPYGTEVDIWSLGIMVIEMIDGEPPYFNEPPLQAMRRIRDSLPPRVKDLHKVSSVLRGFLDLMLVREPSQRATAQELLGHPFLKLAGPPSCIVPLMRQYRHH
Source text: as §1

[7] = molecular target: Tyrosine-protein kinase ABL1 (Homo sapiens, UniProt P00519)
Chain of Tyrosine-protein kinase ABL1 (P00519 whole entry): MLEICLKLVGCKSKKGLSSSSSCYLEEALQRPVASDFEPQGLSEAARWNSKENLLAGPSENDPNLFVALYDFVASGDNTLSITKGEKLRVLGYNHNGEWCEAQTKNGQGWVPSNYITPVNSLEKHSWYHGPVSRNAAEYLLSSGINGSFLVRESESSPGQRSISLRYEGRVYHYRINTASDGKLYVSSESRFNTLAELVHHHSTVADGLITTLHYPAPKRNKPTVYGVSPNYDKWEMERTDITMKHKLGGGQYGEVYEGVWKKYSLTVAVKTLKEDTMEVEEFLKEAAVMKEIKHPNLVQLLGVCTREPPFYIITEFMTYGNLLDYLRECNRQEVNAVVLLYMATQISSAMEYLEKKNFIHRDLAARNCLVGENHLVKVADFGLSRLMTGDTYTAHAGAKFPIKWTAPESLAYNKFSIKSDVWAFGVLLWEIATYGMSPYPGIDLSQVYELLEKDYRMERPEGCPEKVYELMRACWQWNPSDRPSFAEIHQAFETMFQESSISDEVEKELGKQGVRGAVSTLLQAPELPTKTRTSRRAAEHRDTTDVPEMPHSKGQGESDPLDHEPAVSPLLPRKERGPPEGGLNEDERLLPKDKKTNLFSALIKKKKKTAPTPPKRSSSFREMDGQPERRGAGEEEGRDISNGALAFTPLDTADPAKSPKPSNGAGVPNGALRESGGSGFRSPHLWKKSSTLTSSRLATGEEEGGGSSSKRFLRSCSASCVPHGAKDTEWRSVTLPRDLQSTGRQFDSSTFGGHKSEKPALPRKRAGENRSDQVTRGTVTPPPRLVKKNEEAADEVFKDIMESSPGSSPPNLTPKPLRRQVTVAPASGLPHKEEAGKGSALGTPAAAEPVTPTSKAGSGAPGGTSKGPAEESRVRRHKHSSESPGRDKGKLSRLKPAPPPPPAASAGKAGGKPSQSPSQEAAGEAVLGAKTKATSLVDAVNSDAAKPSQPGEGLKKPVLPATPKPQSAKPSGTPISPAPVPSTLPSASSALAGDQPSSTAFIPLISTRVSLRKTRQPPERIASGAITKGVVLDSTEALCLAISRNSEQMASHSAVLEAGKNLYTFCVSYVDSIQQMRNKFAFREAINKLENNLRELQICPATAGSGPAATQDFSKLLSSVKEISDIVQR
Source text: as §1

[8] = molecular target: Tyrosine-protein kinase CSK (Homo sapiens, UniProt P41240)
Source text: as §1

[9] = molecular target: Tyrosine-protein kinase HCK (Homo sapiens, UniProt P08631)
Chain of Tyrosine-protein kinase HCK (P08631 whole entry): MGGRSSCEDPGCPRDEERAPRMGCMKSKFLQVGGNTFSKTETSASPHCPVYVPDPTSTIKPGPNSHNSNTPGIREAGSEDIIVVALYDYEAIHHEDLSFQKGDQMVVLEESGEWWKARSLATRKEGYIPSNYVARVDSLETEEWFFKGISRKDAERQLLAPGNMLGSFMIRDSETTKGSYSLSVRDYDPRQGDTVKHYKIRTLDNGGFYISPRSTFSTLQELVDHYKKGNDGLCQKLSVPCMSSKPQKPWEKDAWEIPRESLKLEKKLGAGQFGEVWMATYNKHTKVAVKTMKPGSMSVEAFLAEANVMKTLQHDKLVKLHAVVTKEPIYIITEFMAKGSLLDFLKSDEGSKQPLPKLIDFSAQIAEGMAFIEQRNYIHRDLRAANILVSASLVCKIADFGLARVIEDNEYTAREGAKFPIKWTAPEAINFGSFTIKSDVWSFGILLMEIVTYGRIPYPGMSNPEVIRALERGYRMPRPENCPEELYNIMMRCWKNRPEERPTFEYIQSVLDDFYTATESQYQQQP
Source text: as §1

[10] = molecular target: Tyrosine-protein kinase Lck (Homo sapiens, UniProt P06239)
Chain of Tyrosine-protein kinase Lck (P06239 whole entry): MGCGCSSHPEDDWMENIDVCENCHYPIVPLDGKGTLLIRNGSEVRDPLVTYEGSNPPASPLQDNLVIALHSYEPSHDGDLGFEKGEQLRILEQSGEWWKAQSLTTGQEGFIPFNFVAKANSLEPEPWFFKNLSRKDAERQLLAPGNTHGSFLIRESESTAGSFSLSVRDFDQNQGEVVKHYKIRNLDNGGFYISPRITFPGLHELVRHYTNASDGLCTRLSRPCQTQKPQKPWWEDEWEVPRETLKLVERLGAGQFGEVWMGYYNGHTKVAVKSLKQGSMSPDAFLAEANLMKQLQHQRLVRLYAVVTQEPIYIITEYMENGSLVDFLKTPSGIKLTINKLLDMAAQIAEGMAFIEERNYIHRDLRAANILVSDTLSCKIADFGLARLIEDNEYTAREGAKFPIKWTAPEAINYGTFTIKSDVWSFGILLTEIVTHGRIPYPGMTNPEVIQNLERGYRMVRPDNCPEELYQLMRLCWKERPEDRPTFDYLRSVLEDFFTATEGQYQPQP
Source text: as §1

IC50 (Ephrin type-A receptor 3): < 10 nM
IC50 [1]: > 10000 nM
IC50 [2]: > 10000 nM
IC50 [3]: < 2 nM
IC50 [4]: < 10 nM
IC50 [5]: > 10000 nM
IC50 [6]: > 10000 nM
IC50 [7]: < 2 nM
IC50 [8]: 8.4 nM
IC50 [9]: < 0.5 nM
IC50 [10]: < 2 nM
SMILES: Cc1ccc(NC(=O)c2cccc(C(F)(F)F)c2)cc1-c1ccc2nc(Nc3ccc(OCCN)cc3)ncc2c1 [Kinase inhibitor, 5]
